Test [1] relates to Cardiac fibroblast. Description: Anti-myocardial fibrosis activity against cardiac fibroblasts (unknown origin) assessed as inhibition of cell proliferation at 30 uM measured after 24 hrs by EdU incorporation based assay. Type of test: functional, tissue-based.
In test [2] the test system is Cardiac fibroblast. The experiment in a line: Anti-myocardial fibrosis activity against cardiac fibroblasts (unknown origin) assessed as inhibition of cell viability at 30 uM measured after 24 hrs by MTT assay. It is filed as functional, tissue-based. For orientation: Tetrazolium assays rely on reduction of a dye to a coloured formazan, in cell work by metabolically active cells.

Test [3] has as its system Cardiac fibroblast. Description: Anti-myocardial fibrosis activity against cardiac fibroblasts (unknown origin) assessed as reduction in cyclinD1 protein expression at 30 uM measured after 24 hrs by western blot analysis. It is filed as functional, tissue-based.
Test [4] concerns Cardiac fibroblast. The experiment in a line: Anti-myocardial fibrosis activity against cardiac fibroblasts (unknown origin) assessed as reduction in collagen synthesis by measuring reduction in type1 collagen protein expression at 30 uM measured after 24 hrs by western blot analysis. It is filed as functional. (In general: Immunoblotting shows a protein as a band on a membrane.)

For test [5], the system named is Cardiac fibroblast. Description: Anti-myocardial fibrosis activity against cardiac fibroblasts (unknown origin) assessed as reduction in CDK4 protein expression at 30 uM measured after 24 hrs by western blot analysis. It is filed as functional, tissue-based.
The subject of test [6] is Cardiac fibroblast. Description: Anti-myocardial fibrosis activity against cardiac fibroblasts (unknown origin) assessed as reduction in collagen synthesis by measuring reduction in type3 collagen protein expression at 30 uM measured after 24 hrs by western blot analysis. Type of test: functional.
For test [7], the system named is Cardiac fibroblast. Description: Anti-myocardial fibrosis activity against cardiac fibroblasts (unknown origin) assessed as inhibition of cell viability measured after 24 hrs by MTT assay. Type of test: functional, tissue-based. The settings on record: dose 5-20 µM.
Test [8] has as its system Cardiac fibroblast. The experiment in a line: Anti-myocardial fibrosis activity against cardiac fibroblasts (unknown origin) assessed as reduction in CDK4 protein expression measured after 24 hrs by western blot analysis. It is filed as functional, tissue-based. The note with it: dose 5-20 µM.
Test [9] concerns the target T1, Aldehyde dehydrogenase, mitochondrial (Homo sapiens) (UniProt P05091).
T1 sequence (whole entry): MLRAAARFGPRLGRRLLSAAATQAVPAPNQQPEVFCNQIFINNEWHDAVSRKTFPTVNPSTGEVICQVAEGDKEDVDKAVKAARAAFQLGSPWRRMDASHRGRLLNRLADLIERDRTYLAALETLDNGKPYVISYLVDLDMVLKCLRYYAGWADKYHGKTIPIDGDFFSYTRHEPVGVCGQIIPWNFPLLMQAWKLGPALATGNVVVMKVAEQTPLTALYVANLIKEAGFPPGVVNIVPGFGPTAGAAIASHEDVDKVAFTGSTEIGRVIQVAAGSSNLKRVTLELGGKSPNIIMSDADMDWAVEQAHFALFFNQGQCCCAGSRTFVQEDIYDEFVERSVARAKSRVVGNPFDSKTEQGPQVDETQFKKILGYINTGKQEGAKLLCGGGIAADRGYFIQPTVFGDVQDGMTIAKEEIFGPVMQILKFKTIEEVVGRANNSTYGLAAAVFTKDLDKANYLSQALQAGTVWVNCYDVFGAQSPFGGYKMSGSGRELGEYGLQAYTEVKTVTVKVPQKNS
Description: Agonist activity at ALDH2 in cardiac fibroblasts (unknown origin) measured after 24 hrs by ELISA. Type of test: tissue-based. The note with it: Cardiac fibroblast, filed as agonist, dose 5-20 µM. A general note: In an ELISA, binding on a coated surface is turned into a signal by an enzyme label.

In test [10] the test system is Cardiac fibroblast. Description: Anti-myocardial fibrosis activity against cardiac fibroblasts (unknown origin) assessed as inhibition of cell viability measured after 24 hrs in presence of ALDH2 inhibitor, daidzin by MTT assay. Type of test: functional, tissue-based.
Test [11] relates to Cardiac fibroblast. The experiment in a line: Anti-myocardial fibrosis activity against cardiac fibroblasts (unknown origin) assessed as inhibition of cell proliferation measured after 24 hrs in presence of ALDH2 inhibitor, daidzin by EdU incorporation based analysis. It is filed as functional, tissue-based.
The subject of test [12] is Cardiac fibroblast. The experiment in a line: Anti-myocardial fibrosis activity against cardiac fibroblasts (unknown origin) assessed as reduction in collagen synthesis by measuring reduction in type3 collagen protein expression measured after 24 hrs by western blot analysis. Type of test: functional. The note with it: dose 5-20 µM.
The test system of test [13] is Cardiac fibroblast. Description: Effect on Bcl2 protein expression in cardiac fibroblasts (unknown origin) measured after 24 hrs in presence of ALDH2 inhibitor, daidzin by western blot analysis. Type of test: functional, tissue-based.
Test [14] deals with Cardiac fibroblast. The experiment in a line: Effect on Bcl2 protein expression in cardiac fibroblasts (unknown origin) at 5 to 20 uM incubated for 24 hrs by western blot analysis. Type of test: functional, tissue-based. The settings on record: dose 5-20 µM.
The test system of test [15] is Cardiac fibroblast. The experiment in a line: Anti-myocardial fibrosis activity against cardiac fibroblasts (unknown origin) assessed as reduction in cyclinD1 protein expression measured after 24 hrs by western blot analysis. Type of test: functional, tissue-based. The note with it: dose 5-20 µM.
In test [16] the test system is Cardiac fibroblast. The experiment in a line: Effect on ALDH2 expression in cardiac fibroblasts (unknown origin) at 5 to 20 uM measured after 24 hrs by western blot analysis. Type of test: functional, tissue-based. The settings on record: dose 5-20 µM.
In test [17] the test system is Cardiac fibroblast. Description: Anti-myocardial fibrosis activity against cardiac fibroblasts (unknown origin) assessed as reduction in CDK4 protein expression measured after 24 hrs in presence of ALDH2 inhibitor, daidzin by western blot analysis. Type of test: functional, tissue-based.
The target in test [18] is T1, Aldehyde dehydrogenase, mitochondrial (Homo sapiens). The experiment in a line: Binding affinity to ALDH2 (unknown origin) by surface plasmon resonance analysis. The settings on record: filed as agonist.
The target of test [19] is T2, Aldehyde dehydrogenase, mitochondrial (Homo sapiens, UniProt P05091).
T2 sequence (P05091 whole entry): T1 sequence (whole entry)
Description: (§1) Agonist activity at human recombinant ALDH2 measured after 1 hr.

Test [20] has as its target T1, Aldehyde dehydrogenase, mitochondrial (Homo sapiens). Described as §1. The settings on record: filed as agonist.
Test [21] has as its system Cardiac fibroblast. Description: Anti-myocardial fibrosis activity against cardiac fibroblasts (unknown origin) assessed as reduction in cyclinD1 protein expression measured after 24 hrs in presence of ALDH2 inhibitor, daidzin by western blot analysis. Type of test: functional, tissue-based.
Test [22] has as its system Cardiac fibroblast. The experiment in a line: Anti-myocardial fibrosis activity against cardiac fibroblasts (unknown origin) assessed as inhibition of cell proliferation measured after 24 hrs by EdU incorporation based assay. It is filed as functional, tissue-based. The note with it: dose 5-20 µM.
The test system of test [23] is Cardiac fibroblast. The experiment in a line: Anti-myocardial fibrosis activity against cardiac fibroblasts (unknown origin) assessed as reduction in collagen synthesis by measuring reduction in type1 collagen protein expression measured after 24 hrs by western blot analysis. Type of test: functional, tissue-based. The settings on record: dose 5-20 µM.
The test system of test [24] is Cardiac fibroblast. The experiment in a line: Anti-myocardial fibrosis activity against cardiac fibroblasts (unknown origin) assessed as reduction in collagen synthesis by measuring reduction in type3 collagen protein expression measured after 24 hrs in presence of ALDH2 inhibitor, daidzin by western blot analysis. Type of test: functional, tissue-based.
The subject of test [25] is Cardiac fibroblast. Description: Effect on Bax protein expression in cardiac fibroblasts (unknown origin) measured after 24 hrs in presence of ALDH2 inhibitor, daidzin by western blot analysis. It is filed as functional, tissue-based.
Test [26] concerns Cardiac fibroblast. Description: Anti-myocardial fibrosis activity against cardiac fibroblasts (unknown origin) assessed as reduction in collagen synthesis by measuring reduction in type1 collagen protein expression measured after 24 hrs in presence of ALDH2 inhibitor, daidzin by western blot analysis. It is filed as functional, tissue-based.
Test [27] relates to Cardiac fibroblast. Description: Anti-myocardial fibrosis activity against cardiac fibroblasts (unknown origin) assessed as inhibition of cell viability at 20 uM measured for 120 hrs by MTT assay. It is filed as functional, tissue-based.
Test [28] deals with Cardiac fibroblast. Description: Effect on Bax protein expression in cardiac fibroblasts (unknown origin) at 5 to 20 uM incubated for 24 hrs by western blot analysis. It is filed as functional, tissue-based. The note with it: dose 5-20 µM.

Calls of active or inactive are those of the source. The rule behind the calls is not given here.

As usually defined, the EC50 is the concentration needed to bring the measured effect to its halfway point.

Turning to `O=C(NCc1ccc2c(c1)OCO2)c1c(Cl)cccc1Cl`, the outcome with Cardiac fibroblast [1], in the test on Cardiac fibroblast [2], with Cardiac fibroblast [3], in the test on Cardiac fibroblast [4], in the test with Cardiac fibroblast [5] and with Cardiac fibroblast [6] was Active.

For `C=CCc1ccc(O)c(-c2cc(CC=C)ccc2O)c1` [MAGNOLOL], the Activity entry in the test on Cardiac fibroblast [7] was “Dose-Dependent Effect”; in the test with Cardiac fibroblast [8] it was “Dose-Dependent Effect”; in test [9], “Dose-Dependent Effect”; in the test with Cardiac fibroblast [12], “Dose-Dependent Effect”; in the test with Cardiac fibroblast [15], “Dose-Dependent Effect”; in test [18], 7.07 10^-6M. Also, the Activity result (in test [20]; with Cardiac fibroblast [22]; in the test on Cardiac fibroblast [23]) was “Dose-Dependent Effect” each time. Also, the outcome in the test with Cardiac fibroblast [10], with Cardiac fibroblast [11], in the test with Cardiac fibroblast [13], with Cardiac fibroblast [14], with Cardiac fibroblast [16] and in the test with Cardiac fibroblast [17] was inactive. Further, the outcome in the test with Cardiac fibroblast [21], with Cardiac fibroblast [24], with Cardiac fibroblast [25], in the test on Cardiac fibroblast [26] and in the test on Cardiac fibroblast [28] was inactive. The half-maximal effective concentration (EC50) in [19] was found to be 57.9 µM. Also, the outcome in the test with Cardiac fibroblast [27] was Active.

The values are drawn from ChEMBL document CHEMBL4819089, “Magnolol, a natural aldehyde dehydrogenase-2 agonist, inhibits the proliferation and collagen synthesis of cardiac fibroblasts” (Bioorg Med Chem Lett, 2021).
